# pIC50: −log10 of the molar value.
# Legend:
# [1] = system: Bub1 kinase (pre-induced phospho-histone 2A); test: H2A Abrogation-Assay (cell-based mechanistic assay, pre-treatment with Nocodazole); conditions: Nocodazole 1 μg/ml 16 h, then test compound 1 h; read-out: Biological Assay 4.2: H2A Abrogation IC50
# [2] = system: HeLa human cervical tumor cells; test: Proliferation Assay (HeLa+Paclitaxel); assay type: cell-based; conditions: 3 nM paclitaxel, test substance 92 hours; read-out: Biological Assay 3: Proliferation Assay (HeLa + Paclitaxel) IC50
SMILES,pIC50 [1],pIC50 [2]
"COc1cnc(-c2nn(Cc3c(F)cc(OCCO)cc3F)c3ccccc23)nc1Nc1ccnc(C)c1 [Example 2-1-2, 2-{3,5-difluoro-4-[(3-{5-methoxy-4-[(2-methylpyridin-4-yl)amino]pyrimidin-2-yl}-1H-indazol-1-yl)methyl]phenoxy}ethanol]",7.96,6.46
"COc1cnccc1Nc1nc(-c2nn(Cc3c(F)cc(OCCO)cc3F)c3ccccc23)ncc1OC [Example 2-1-3, 2-{3,5-difluoro-4-[(3-{5-methoxy-4-[(3-methoxypyridin-4-yl)amino]pyrimidin-2-yl}-1H-indazol-1-yl)methyl]phenoxy}ethanol]",7.54,7.20

# Reference: patent US10350206B2, “Benzyl substituted indazoles as BUB1 inhibitors” (Bayer Pharma Aktiengesellschaft, priority 2014, dated 2019)
